How the values were obtained:
[1] = mouse, in vivo
Description: MRL/lpr mice were first randomized, initial bleeds collected, and body weights recorded for baseline measurements (FIG. 1). All mice were individually ear tagged and were monitored throughout the entire experiment (e.g., “Group#-Cage letter-Mouse#”, so “3B5”=Group 3 (G3), cage B, mouse#5). Mice were age-matched and treatment started at 6-8 weeks of age. Cheek bleeds and urine collection continued weekly throughout the experiment. Mice were individually tracked for several parameters including cytokine and ANA levels, proteinuria, body mass, lymphomegaly, general health, and mortality. All parameters were evaluated bi-monthly except mortality which was monitored daily. All groups consisted of a minimum of at least 10-12 mice per group. Ex vivo experiments included flow cytometry analyses for plasma cells, serum complement C3 and ANA levels; urine protein and leukocytes, serum cytokine profiling, renal histo pathology, and determination of compound levels (pharmacokinetics (PK)) in the spleen, kidney and plasma. Mice were tracked on an individual basis. For all data, mice were grouped into populations and data graphed as mean±SEM. Bi-monthly observations and data collected were recorded for each group, except mortality which was performed daily. End-stage readouts were analyzed as described in the MATERIALS AND METHODS section (above) and in FIG. 1. […]

IL-12 = assay: Serum IL-12 (Luminex) in NZM mice; format: in vivo, mouse
Procedure: (§1) For the processing of serum samples for cytokine analysis, frozen plasma at −80° C. was thawed on ice, vortexed, and centrifuged for 10 minutes to remove debris and aggregates. A total of 25-50 μL of serum was used for Luminex® assays following the manufacturer's instructions. Ten different mouse cytokines were measured using the mouse cytokine 10-plex bead kit (Invitrogen, Carlsbad, Calif., no. LMC0001). Briefly, filter plates (Millipore, Billerica, Mass., no. MAIPSWU10), were pre-wet with 200 μL of wash solution (kit component) and 25 μL of beads were added per well. […]
(§2) Age mated, female, NZM or NZW/LacJ, mice were matured for the study of lupus nephritis for a total of 7 months or 210 days at which time urine was collected for proteinuria detection. Mice with 0.5-1.0 mg/ml of urine protein as determined by an optical density-based total protein precipitation assay and cross-checked for 30-300 mg/dl of protein as determined by a stick assay were considered proteinuria positive and selected for study entry. […] End-stage lupus nephritis was evaluated by histopathology and scored by a board certified pathologist for the assessment of total renal damage in diseased animals using the scoring method described by Smith et al (Smith, Dong et al. 2007). […]

IL-17A = assay: Serum IL-17A in NZM mice; format: in vivo, mouse
Procedure: as §1, §2

CXCL10/IP-10 = assay: Serum CXCL10/IP-10 in NZM mice; format: in vivo, mouse
Procedure: as §1, §2

CXCL9/MIG = assay: Serum CXCL9/MIG in NZM mice; format: in vivo, mouse
Procedure: as §1, §2

IL-13 = assay: Serum IL-13 in NZM mice; format: in vivo, mouse
Procedure: as §1, §2

KC/IL-8 = assay: Serum KC/IL-8 in NZM mice; format: in vivo, mouse
Procedure: as §1, §2

NZM mice = assay: Splenomegaly (EOS spleen mass) in NZM mice; format: in vivo, mouse
Procedure: Age mated, female, NZM or NZW/LacJ, mice were matured for the study of lupus nephritis for a total of 7 months or 210 days at which time urine was collected for proteinuria detection. Mice with 0.5-1.0 mg/ml of urine protein as determined by an optical density-based total protein precipitation assay and cross-checked for 30-300 mg/dl of protein as determined by a stick assay were considered proteinuria positive and selected for study entry. Groups were normalized to contain a Gaussian distribution of proteinuria positive animals (i.e., ⅓ low proteinuria, ⅓ medium, ⅓ high) then randomized between groups before ear marking and taking baseline measures including urine and serum collections. A total of five mice from the total population were randomly selected for baseline kidney histology evaluation. Treatments and tests for each group are as described in FIG. 12. Briefly, with a minimum of 10 mice per group, COMPOUND A was administered at 100 mg/kg or 55 mg/kg, both twice a day and orally. […] Vehicle included 3% DMSO, 10% Solutol and 87% PBS. […] End-stage lupus nephritis was evaluated by histopathology and scored by a board certified pathologist for the assessment of total renal damage in diseased animals using the scoring method described by Smith et al (Smith, Dong et al. 2007). […] Day-98 or “end of treatment/study” represents 310 days of age for the NZM animals.

[2] = tested on: c-telopeptide collagen type I cross-linker; CTx; assay: Osteoclast activity: serum bone resorption biomarker CTx in NZM mice; format: in vivo, mouse
Description: Vehicle included 3% DMSO, 10% Solutol and 87% PBS.

## CN1CCN(c2cccc(Nc3nc4c(-c5ccc(S(C)(=O)=O)cc5)cccn4n3)c2)CC1 [COMPOUND A, [8-(4-methanesulfonyl-phenyl)-[1,2,4]triazolo[1,5-a]pyridin-2-yl]-[3-(4-methyl-piperazin-1-yl)-phenyl]-amine]
[1]
  overt toxicity: overt toxicity was not observed
IL-12; 55 mg/kg
  serum IL-12 decrease compared to vehicle: 99.4%
IL-12; 100 mg/kg
  serum IL-12 decrease compared to vehicle: 99.9%
IL-17A; 55 mg/kg
  serum IL-17A decrease compared to vehicle: 79.1%
IL-17A; 100 mg/kg
  serum IL-17A decrease compared to vehicle: 86.2%
CXCL10/IP-10; 55 mg/kg
  serum CXCL10/IP-10 decrease compared to vehicle: 47.3%
CXCL10/IP-10; 100 mg/kg
  serum CXCL10/IP-10 decrease compared to vehicle: 80.0%
CXCL9/MIG; 55 mg/kg
  serum CXCL9/MIG decrease compared to vehicle: 83.7%
CXCL9/MIG; 100 mg/kg
  serum CXCL9/MIG decrease compared to vehicle: 85.7%
IL-13; 55 mg/kg
  serum IL-13 decrease compared to vehicle: 86.2%
IL-13; 100 mg/kg
  serum IL-13 decrease compared to vehicle: 79.5%
KC/IL-8; 55 mg/kg
  serum KC/IL-8 decrease compared to vehicle: 78.0%
KC/IL-8; 100 mg/kg
  serum KC/IL-8 decrease compared to vehicle: 72.9%
NZM mice; 55 mg/kg
  total EOS spleen mass decrease compared to vehicle: 71.8%
NZM mice; 100 mg/kg
  total EOS spleen mass decrease compared to vehicle: 73.5%
[2]; 55 mg/kg
  serum CTx decrease vs. vehicle: 37.8%
[2]; 100 mg/kg
  serum CTx decrease vs. vehicle: 46.7%

— patent publication US9023853B2, “Janus kinase 2 (JAK2) inhibitor for the treatment of lupus” (Cephalon, Inc., priority 2010, dated 2015)
